Data as given in article PMC7546004, “Targeting BCL10 by small peptides for the treatment of B cell lymphoma” (Theranostics, 2020).
Square brackets hold non-standard residues; d marks the D form. Peptide text beside a SMILES is read from it.

Legend:
NF-κB signalling pathway = experiment: Western blot of NF-κB pathway proteins (IKKβ, p-IKKβ, IκBα, p-IκBα); format: cell-based; conditions: 12 h, indicated concentrations; Figure 6E
Procedure: Cell pellets were lysed in RIPA buffer (50 mM Tris at pH 8.0, 150 mM NaCl, 1% NP-40, 1 mM EDTA, and 1X protease inhibitor cocktail) or RIPA buffer containing 0.1% SDS. Equal amounts of protein extracts were separated by SDS-PAGE and blotted onto polyvinylidene difluoride (PVDF) membranes. The following Antibodies were purchased and used in this study: anti-IκBα (10268-1), anti-IKKβ (20979-1), anti-Bcl2 (12789-1-AP), anti-GAPDH (10494-1-AP), and anti-β-actin (66009-1-AP) were from Proteintech; anti-p-IκBα (2859S), anti-p-IKKβ (2697S), anti-RelB (10544), anti-α-tubulin (5335), anti-PARP (9532S), and anti-CARMA1 (4435) were from Cell Signaling Technology; anti-β-actin (A1978) was from Sigma; anti-Bcl10 (A1106) was from ABclonal; anti-A20 (sc-166692), anti-CYLD (sc-74435), and anti-MALT1 (sc-46677) were from Santa Cruz; anti-HOIL-1 (HPA024185) was from Atlas Antibodies; and anti-Myc (ab9106) was from Abcam.

HBL1 cells = experiment: Intracellular pharmacokinetics, BCL10-P4 versus DRI-BCL10-P4
Procedure: (§1) MBP-Bcl10 was expressed and purified as previously described {Qiao, 2013 #85}. Purified
(§2) mM NaCl, 1% NP-40) at 4 °C for 1 hour, followed by addition of 5% BSA blocked S t re ptavidin (SAV)
(§3) Immunoprecipitant were washed 5 times with IP buffer and separated by SDS-PA G E . […]
(§4) hActin- F: 5’-[…]-3’
(§5) hIL6-R: 5’- […]-3 ’.
(§6) hBcl10-F: 5’-[…] TAGAAA-3’
hBcl10-R: 5’-[…] T-3’
1x105 HBL1, TMD8, OCl-LY 1 , OCl-LY 1 , U2932, MD901 or RCK8 cells were seeded in 12-well plate
wa sh e d and lysed with RIPA buffer.
immunoblotting with Streptavidin (Cell signaling, cat. #3999S). […]

[1] = Tolerability in xenograft mice (body weight, histology of major organs); format: in vivo, NCG mice
Procedure: Mouse xenograft experiments:
Six-week-old female NOD prkdc-/- IL-2Rg-/- (NCG) mice purchased from GemPharmatech Co., Lt d we re raised in a SPF- level Laboratory Animal Room. Low -passage 5x106 human TMD8, SU-DHL- 6 or 1x10^7 OCl-LY1 cells at 100μl were premixed with 100μl Matrigel (Corning Biocoat, cat. # 354234) and inoculated subcutaneously into the right flank of mice. When tumors reached an average size of 150 mm3, mice were randomly assigned into treatment groups (10 mg /kg DRI-BCL10- P4) or control groups (5 mg /kg BCL10- Ctl). Peptides were reconstituted in 5% DMSO/PBS and administered by i.v. injection. Tumor volumes were monitored by a digital caliper every other day and calculated using the formula: (smallest diameter2 x largest diameter)/2. Mice were weighed every day and sacrificed at the end of the treatment. T umors and main organs were harvested and we i ghte d at the moment of death. All animal experiments were approved by the Animal Institute Committee of Changhai Hospital, the Second Military Medical University.
Immunohistochemistry (IHC)
Formalin-fixed paraffin -embedded tumor xenografts were sectioned, dewaxed and submitted to antigen retrieval. The anti- Ki67 (proteintech, 27309-1) antibody was used at a 1:500 dilution.
Biotin-conjugated secondary antibodies (MXB biotechnologies, KIT-9710) were used. […]

BCL10 = molecular target: T1, BCL10 (Homo sapiens, UniProt O95999); experiment: In vitro BCL10 filamentation assay (negative-stain electron microscopy); format: biochemical; conditions: MBP-BCL10 and peptide premixed at 1:1 or 1:2 molar ratio, RT 30 min, then TEV cleavage
T1 sequence (O95999 1-233): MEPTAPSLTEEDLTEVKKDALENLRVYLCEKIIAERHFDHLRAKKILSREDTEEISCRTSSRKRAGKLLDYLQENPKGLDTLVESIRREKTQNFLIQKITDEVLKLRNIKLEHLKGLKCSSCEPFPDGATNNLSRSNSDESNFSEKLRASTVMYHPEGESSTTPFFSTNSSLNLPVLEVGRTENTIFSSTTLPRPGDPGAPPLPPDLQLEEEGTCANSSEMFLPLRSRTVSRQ
Procedure: MBP-BCL10 was expressed and purified as previously described. MBP-BCL10 and BCL10 peptide inhibitors were premixed at a 1:1 or 1:2 molar ratio at RT for 30 minutes before adding TEV to cleave the MBP tag. 5 μL of reaction mixture was applied to copper grids (Beijing Zhongjingkeyi Technology Co., Cat. No. BZ10024a), where it remained for 1 minute and was then negatively stained with 3% uranyl acetate for 1 minute, air-dried and imaged with a JEM-1230 TEM at 100 keV.

MBP-BCL10 = molecular target: T2, MBP-BCL10 (Homo sapiens, UniProt O95999); experiment: Co-immunoprecipitation of peptide with MBP-BCL10; format: binding; conditions: biotinylated peptide, streptavidin beads, 4 °C
T2 construct: made in house
Procedure: as §1, §2, §3, §4, §5, §6

TMD8 cells = format: cell-based, human
From the text: GraphPad Prism software was used to determine GI50 values.

Structure (SMILES): CC[C@@H](C)[C@@H](NC(=O)[C@@H](CCCCN)NC(=O)[C@H](NC(=O)[C@@H](Cc1c[nH]c2ccccc12)NC(=O)[C@@H](Cc1ccccc1)NC(=O)[C@@H](CCC(N)=O)NC(=O)[C@@H](CC(N)=O)NC(=O)[C@@H](CCCNC(=N)N)NC(=O)[C@@H](CCCNC(=N)N)NC(=O)[C@@H](CCSC)NC(=O)[C@@H](CCCCN)NC(=O)[C@@H](Cc1c[nH]c2ccccc12)NC(=O)[C@@H](CCCCN)NC(=O)[C@@H](CCCCN)NC(=O)[C@@H](CCCNC(=N)N)NC(=O)[C@H](NC(=O)[C@@H](CO)NC(=O)[C@@H](CO)NC(=O)[C@@H](CCCNC(=N)N)NC(=O)[C@@H](CCCCN)NC(=O)[C@@H](CCCNC(=N)N)NC(=O)[C@@H](C)NC(=O)CNC(=O)[C@@H](CCCCN)NC(=O)[C@@H](CC(C)C)NC(=O)[C@@H](CC(C)C)NC(=O)[C@@H](CC(=O)O)NC(=O)[C@@H](Cc1ccc(O)cc1)NC(=O)[C@@H](CC(C)C)NC(=O)[C@@H](CCC(N)=O)NC(=O)[C@H](N)CCC(=O)O)[C@H](C)O)[C@H](C)CC)C(=O)N[C@H](CCC(N)=O)C(=O)N[C@H](CCCNC(=N)N)C(=O)N[C@H](CC(=O)O)C(=O)O [DRI-BCL10-P4] (H-[dE][dQ][dL][dY][dD][dL][dL][dK]G[dA][dR][dK][dR][dS][dS][dT][dR][dK][dK][dW][dK][dM][dR][dR][dN][dQ][dF][dW][dI][dK][dI][dQ][dR][dD]-OH)
- NF-κB pathway activation in HBL1 and TMD8 cells (NF-κB signalling pathway): repressed NF-κB pathway activation
- NF-κB pathway activation in OCI-LY1 cells (NF-κB signalling pathway): but not in OCI-LY1 cells
- intracellular level after the first 4 h (intracellular stability) (HBL1 cells): maintained for a much longer time
- uptake by HBL1 cells and level within the first 4 h (HBL1 cells): similarly taken up
- adverse effects in the mice (body weight) ([1]; 10 mg/kg Q.d., i.v., Figure 7C-F): without inducing notable adverse effects
- histological examination of the major organs (H&E) ([1]; 10 mg/kg daily for 11 days, Figure S8D): did not result in discernible damage to these organs
- BCL10 filament formation (EM) (BCL10): effectively disrupted BCL10 filament formation
- interaction with MBP-BCL10 (co-immunoprecipitation) (MBP-BCL10): interacted with BCL10
- GI50 (TMD8 cells): 11.9 ± 6.2 µM
